The results in this text go back to PubChem BioAssay AID179 (DTP/NCI, 2004).

Each structure is given as a SMILES string. pEC50, pIC50: −log10 of the molar value. “And” between values parts separate entries of the source, which are not always exact repeats. Identical values can stand only once. The source made the active and inactive calls.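 Rule for the calls: active = compounds giving half or more protection of infected cells from virus-caused growth loss, again on retest; inactive = the rest.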 Where a SMILES comes first, the peptide text is derived from it.

The test system of this experiment is CEM cells HIV-1 protection, formazan growth assay. Description: NCI AIDS Antiviral Assay. The conditions noted are these: for pIC50: measured here: growth of uninfected CEM cells. In outline: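 Protection of CEM cells against HIV-1 measured as cell growth via soluble formazan read-out, with five concentrations tested on both infected and uninfected cells; failure to protect may reflect toxicity.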

As a reminder, the pEC50 is −log10 of the EC50, conventionally taken in molar units. The term pIC50 denotes −log10 of the IC50, conventionally taken in molar units. High values mean a small IC50, low ones a large IC50. On to `CN(C)c1ccc(/C=C(\NC(=O)c2ccccc2)C(=O)NC(CCC(=O)O)C(=O)O)cc1` (stereo unspecified), for which the pEC50 is less than 4.30 and the pIC50 was 4.46.

With `O=C1N(O)C2(C=CCCC2)/C(=N/O)C12CCCCC2` (stereo unspecified), the pEC50 is less than 4.15 and the pIC50 was less than 4.15.

With `CC(C)[Si](OC1=C(C(=O)Nc2ccccc2Cl)CCCCC1)(C(C)C)C(C)C`, the pEC50 is less than 3.70 and the pIC50 is 4.15.

As for `CN(C)c1ccc(C=NCC2CCCN3CCCCC23)cc1` (stereo unspecified), the pEC50 was less than 4.00 and the negative-log IC50 (pIC50) is less than 4.00.

On to `[Se]c1nc2ccccc2o1`, for which the pEC50 was less than 3.65 and the negative-log IC50 (pIC50) was 4.27.

Regarding `Cc1ccc(S(=O)(=O)N(CCNC(=O)c2cccc(O)c2O)c2cc3c4c(c2)Oc2cccc5c2C4(C)c2c(cccc2O3)O5)cc1`, the pEC50 was less than 3.70 and the pIC50 was 4.97.

As to `Cc1ccc(NC(=O)C2C(=O)N(c3ccc(C)c(C)c3)C(=O)/C2=N/O)cc1C` (stereo unspecified), the pEC50 was less than 4.72 and the negative-log IC50 (pIC50) is less than 4.72.

Turning to `C=C=C[P+](c1ccccc1)(c1ccccc1)c1ccccc1`, the pEC50 is less than 3.81 and the pIC50 was 5.49.

Turning to `C=CCc1ccccc1CC1(OCC)OC(=O)c2ccccc21` (stereo unspecified), the pEC50 was less than 4.36 and the negative logarithm of the IC50 (pIC50) was less than 4.36.

Consider `CC1(C)CC(N(C(=O)/C=C/c2ccc([N+](=O)[O-])o2)C2CCCCC2)CC(C)(C)N1`, for which the pEC50 is less than 4.49 and the pIC50 is 4.76.

Regarding `COc1ccc(-n2c(C)nc3ccc(NC4OC(CO)C(O)C(O)C4O)cc3c2=O)cc1` (stereo unspecified), the pEC50 is less than 3.70 and the pIC50 was less than 3.70.

`CC1C2=CC=C(O2)C(C)(C)C2=CC=C(O2)C(C)(C)C2=CC=C(O2)C(C)(C)C2=CC=C1O2`: the outcome was inactive.

Regarding `CC1Nc2c(ccc3ncccc23)C(=O)N1Nc1ccccc1` (stereo unspecified), the pEC50 is less than 4.08 and the pIC50 was 4.22.

In the case of `COc1cc(\C=N/N=C/C=C/c2ccccc2)cc(OC)c1OC`, the result was inactive.

Turning to `CCCCCCCCCCC(=O)CC(=O)c1c(O)cccc1O`, the outcome was inactive.

`CC1(C)CS(=O)(=O)CC(C)(C)C(=N/N)/C1=N\N`: the pEC50 was less than 3.70 and the pIC50 was less than 3.70.

For `COC(=O)C1=C(C(=O)OC)C2(CCCCCC2=O)OC1=O` (stereo unspecified), the pEC50 was less than 3.07 and the pIC50 was 4.34.

Consider `OCC12C3C4C5C3C1C5C42` (stereo unspecified), for which the pEC50 is less than 3.70 and the pIC50 was less than 3.70.

Turning to `COc1cc(NC(C)=O)c(OC)cc1Cl`, the result was inactive.

`CCOP(=O)(/N=C1/C2CCC(C2)C1C)OCC` (stereo unspecified): the pEC50 is less than 3.63 and the pIC50 is less than 3.63.

With `Cc1cn([C@H]2C[C@@H]3[C@@H](COC(CCc4ccccc4)N3O)O2)c(=O)[nH]c1=O` (stereo partly specified), the pEC50 was 4.02 and the pIC50 is 3.82.

Consider `COC(=O)c1cc(C(=O)OC)c(C/C(=N/Nc2ccc([N+](=O)[O-])cc2[N+](=O)[O-])C(=O)Nc2cccc(C(F)(F)F)c2)nc1C/C(=N/Nc1ccc([N+](=O)[O-])cc1[N+](=O)[O-])C(=O)Nc1cccc(C(F)(F)F)c1`, for which the pEC50 is less than 3.70 and the pIC50 was 4.15.

In the case of `CC1CC/C(=C\c2ccc(F)cc2)C2=C1C(c1ccc(F)cc1)NC(=S)N2` (stereo unspecified), the pEC50 was less than 3.70 and the pIC50 is 4.78.

For `Cc1nc2c(O)cc(Cl)c(O)c2nc1C`, the outcome was inactive.

Turning to `CC(CCC(=O)O)(c1ccc(O)c(CN(c2ccccc2)c2ccccc2)c1)c1ccc(O)c(CN(c2ccccc2)c2ccccc2)c1`, the outcome was inactive.

Turning to `N/N=C(\C(=O)Nc1ccc([N+](=O)[O-])cc1)C(C1=Nc2cc([N+](=O)[O-])ccc2NC1)[N+](=O)[O-]` (stereo unspecified), the pEC50 was less than 4.51 and the pIC50 is less than 4.51.

For `COc1ccc(CC2COC(=O)[C@@H]2Cc2ccccc2)cc1OC` (stereo partly specified), the pEC50 was less than 3.70 and the pIC50 was 4.12.

On to `O=C1NC(=S)N/C1=C\c1ccccc1`, for which the pEC50 is less than 3.70 and the pIC50 was 3.75.

Consider `CNCCOC(c1ccccc1)c1ccccc1C` (stereo unspecified), for which the pEC50 is less than 3.70; the pIC50 is 4.03 and 4.60.

With `COc1ccc(C2Oc3ccc(Cl)cc3C=C2[N+](=O)[O-])cc1` (stereo unspecified), the pEC50 was less than 3.70 and the pIC50 was 6.35.

As to `COC(=O)c1c(C(=O)OC)c2c(C)nn3ccc1n23`, the pEC50 is less than 3.02 and the pIC50 was less than 3.02.

For the compound `COc1ccc2[nH]cc(C(=O)C(=O)NC34CC5CC(CC(C5)C3)C4)c2c1`, the pEC50 is less than 3.70 and the pIC50 is 5.22.

Turning to `CC(NC(=O)CNC(=O)C(N)CO)C(=O)NC(CCC(=O)O)C(=O)NC(CCCCN)C(=O)NC(CO)C(=O)NC(CCCCN)C(=O)NC(CCCCN)C(=O)NC(CCCCN)C(=O)NCC(=O)NC(CO)C(=O)NC(CC(N)=O)C(=O)NC(C)C(=O)NC(Cc1cnc[nH]1)C(=O)NC(CO)C(=O)O` (stereo unspecified) (H-SGAEKSKKKGSNAHS-OH; configuration not given here), the result was inactive.

With `COC(=O)C1=COC(OC2OC(CO)C(O)C(O)C2O)C2C1C=C[C@@]21C=C([C@@H](C)OC(=O)/C=C/c2ccc(O)cc2)C(=O)O1` (stereo partly specified), the pEC50 was less than 3.53 and the negative-log IC50 (pIC50) is 3.80.

On to `COc1cc([C@H]2Oc3c(OC)cc(/C=C/C(=O)O)cc3[C@@H]2C(=O)O)ccc1O`, for which the pEC50 was 3.92 and the pIC50 was less than 3.70.

On to `C1CSCCCSCCCSCCCSC1`, for which the pEC50 is less than 4.47 and the pIC50 is less than 4.47.

`CC(=O)OC1CN(OCC2OC(OC(C)=O)C(OC(C)=O)C(OC(C)=O)C2OC(C)=O)CC(OC(C)=O)C1OC(C)=O` (stereo unspecified): the pEC50 is less than 3.70 and the pIC50 is less than 3.70.

As for `COC(=O)C1C2CC3c4[nH]c5cc(OC)ccc5c4CCN3CC2CC(OC)C1OC` (stereo unspecified), the pEC50 is less than 3.70 and the pIC50 is less than 3.70.

As for `CN(C(=O)c1ccc2c(c1)sc1c(=O)n(C)c3ccccc3c12)c1ccccc1`, the pEC50 was less than 3.70 and the pIC50 was less than 3.70.

For the compound `O=C(O)c1ccc(CSc2ccc([N+](=O)[O-])cc2)cc1`, the pEC50 was less than 4.05 and the pIC50 was 4.14.

On to `C/C(C=C(C#N)C#N)=C\c1ccc(C)cc1`, for which the pEC50 is less than 2.92 and the pIC50 was less than 2.92.

Turning to `CCCC(=O)OC1C(C(O)CO)OC2OC(C)(C)OC21` (stereo unspecified), the pEC50 is less than 3.06 and the pIC50 was less than 3.06.

With `CCCO/N=C\c1c2c(O)c3c(O)c(C)c4c(c3c1O)C(=O)C(C)(O/C=C\C(OC)C(C)C(OC(C)=O)C(C)C(O)C(C)C(O)C(C)/C=C\C=C(\C)C(=O)N2)O4` (stereo unspecified), the pEC50 was less than 4.00 and the pIC50 is 5.28.

With `N=C(N)N1CCNc2ccccc2C1`, the result was inactive.

`N#Cc1c(Br)n(C2OC(CO)C(O)C2O)c2ncn3ccnc3c12` (stereo unspecified): the pEC50 was less than 3.70 and the pIC50 was less than 3.70.

As for `CC1(C)O[C@H]2Cn3c(c(C#N)c4ccccc43)[C@H]2O1`, the pEC50 was less than 3.70 and the pIC50 was 3.75.

Take `Clc1ccc(OCC(COc2ccccc2)Oc2nc(-c3ccccc3)nc(-c3ccccc3)n2)cc1` (stereo unspecified): the pEC50 was less than 5.41 and the pIC50 was less than 5.41.

Turning to `COc1cccc2cc(C)c(C(=O)c3ccccc3)nc12`, the pEC50 was less than 4.19 and the pIC50 was less than 4.19.

With `c1cc2cc3c4c5c(cc6ccc7cc8cc9c%10c8c8c7c6c5c8c5c%10c(c1C9N1CCOCCOCCOCCOCCOCC1)c2c45)C3` (stereo unspecified), the pEC50 is less than 4.00 and the pIC50 is less than 4.00.

Regarding `COc1cccc(/C=C2\N=C(c3ccccc3)OC2=O)c1OC`, the pEC50 is less than 3.70 and the pIC50 was 4.04.

For the compound `N#CC(/C=C/c1ccccc1)Nc1ccccc1CO` (stereo unspecified), the pEC50 was less than 4.56 and the pIC50 was less than 4.56.

On to `Cc1ccc(OCC2OC(n3cnc4c(Cl)nc(Nc5cc(Cl)cc(Cl)c5)nc43)CC2Oc2ccc(C)cc2)cc1` (stereo unspecified), for which the pEC50 is less than 3.70 and the negative-log IC50 (pIC50) is less than 3.70.

On to `CCCc1cc(=O)oc2c3c(c4c(c12)OC(N)=C(C#N)C4c1ccccc1)O[C@H](C)[C@@H](C)C3=O` (stereo partly specified), for which the pEC50 was less than 3.70 and the pIC50 was 5.06.

In the case of `O=C1C2C(C(=O)N1c1ccccc1)C1(c3ccccc3)CCC2(C(=O)c2ccccc2)O1` (stereo unspecified), the pEC50 was less than 3.70 and the negative logarithm of the IC50 (pIC50) is 4.30.

Consider `Cc1cc(S(=O)(=O)N=C2Nc3cccc4cccc(c34)N2)c(S)cc1Cl`, for which the pEC50 is 3.88 and the pIC50 was 3.76.

Consider `CC(C)(C)C1CCC2c3c([nH]c4ccccc34)C3C(=O)N(c4ccccc4Cl)C(=O)C3C2C1` (stereo unspecified), for which the pEC50 was less than 3.70 and the pIC50 was 4.78.

`C(=Nc1ccccc1C1SCCCS1)c1ccccc1`: the pEC50 was less than 3.70 and the pIC50 was less than 3.70.

As for `CC(C)(C)OC(=O)NC(Cc1ccccc1)C(=O)OCN1C(=O)C2C3C=CC(C2C1=O)C1C2C(=O)N(COC(=O)C(Cc4ccccc4)NC(=O)OC(C)(C)C)C(=O)C2C31` (stereo unspecified), the pEC50 was less than 4.00 and the pIC50 is 4.81.

As for `CCCC(=O)N/S(=N/S(=O)(=O)c1ccc(Cl)cc1)C(Cl)(Cl)Cl` (stereo unspecified), the negative-log EC50 (pEC50) was 3.79 and the pIC50 is less than 3.70.

`O=C1NN=C(c2ccccc2)SC1c1ccccc1` (stereo unspecified): the pEC50 is less than 3.70 and the pIC50 is less than 3.70.

For `NNC(=S)N/N=C(\c1nc2ccc(Cl)cc2[nH]c1=O)C(O)c1ccc(Cl)cc1Cl` (stereo unspecified), the pEC50 is less than 3.28 and the pIC50 is 4.01.

As to `CNS(=O)(=O)c1ccccc1C(C)(O)c1ccccc1` (stereo unspecified), the pEC50 was less than 3.70 and the negative-log IC50 (pIC50) was less than 3.70.

As for `O=C(O)CC1CCN(C(=O)c2ccccc2)C(Cc2c[nH]c3ccccc23)C1O` (stereo unspecified), the pEC50 was less than 3.90 and the pIC50 is less than 3.90.

On to `Cn1c(=O)[nH]c(N2CCOCC2)c(C#N)c1=S`, for which the pEC50 is less than 3.70 and the pIC50 is less than 3.70.

In the case of `O=C1c2c(c(-c3ccccc3)c(-c3ccccc3)c(-c3ccccc3)c2-c2ccccc2)C(=O)N1c1cccc(Br)c1`, the pEC50 is less than 5.48 and the pIC50 is less than 5.48.

With `CC12CCCCC1CC(=O)/C(=C\O)C2` (stereo unspecified), the pEC50 is less than 3.70 and the pIC50 was 4.11.

As to `CN(/N=C/c1cccs1)c1ccc([N+](=O)[O-])cc1[N+](=O)[O-]`, the pEC50 was less than 3.70 and the pIC50 is 3.97.
